The values below come from patent US8145437B2, “System and method to obtain oligo-peptides with specific high affinity to query proteins” (priority 2005, dated 2012).

Data set [1] has as its system GAL4 peptide. The data set is described as follows: Binding of fluorescent labeled GAL4 peptide to protein extracts of monoclonal clones. The note with it: other proteins tested even in much higher concentrations.
Data set [2] has as its target T1, dimerisation domain of 1HBW REGULATORY PROTEIN GAL4 (Saccharomyces cerevisiae, UniProt P04386).
T1 construct: the dimerisation domain of 1HBW REGULATORY PROTEIN GAL4 inserted into pBT (as it is provided and described by Stratagene); host or cells: E. coli BacterioMatch two-hybrid reporter strain (derived from XL1-Blue MRF')
The data set is described as follows: BacterioMatch two-hybrid assay with Target Oligo Pool in pTRG vector. Format: cell-based. The note with it: ampicillin-resistant reporter. As to the method:
The BacterioMatch™ two-hybrid system* (Stratagene, 11011 N. Torrey Pines Road La Jolla, Calif. 92037) was used to Quickly Detect Protein-Protein Interactions designed by the recent Method. It is a simple alternative or complement to yeast two-hybrid systems for in vivo detection of protein-protein interactions. Because the two-hybrid assay is performed in bacteria, results are obtained more easily and quickly than in yeast. The system is based on transcriptional activation of a primary ampicillin-resistant reporter and a secondary β-galactosidase reporter for validation. The BacterioMatch two-hybrid system is based on a methodology developed by Dove, Joung, and Hochschild of Harvard Medical School.
The BacterioMatch two-hybrid system is based on transcriptional activation (FIG. 4). A protein of interest—the bait—is fused to the full-length bacteriophage repressor protein (.lamda.cI). The corresponding target protein is fused to the amino-terminal domain of the α-subunit of RNA polymerase (RNAPα). The bait is tethered to the […] sequence upstream of the reporter promoter through the DNA-binding domain of .lamda.cI. If the bait and target interact, they recruit and stabilize the binding of RNA polymerase close to the promoter and activate the transcription of the ampicillin-resistant reporter gene in the BacterioMatch two-hybrid reporter strain. […]

T1 sequence (P04386 50-106 limits assumed): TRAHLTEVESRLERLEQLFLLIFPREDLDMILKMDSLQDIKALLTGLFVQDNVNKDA

“Unlabelled GAL4: unlabelled GAL4 peptide, the query, used as competitor of labeled GAL4 (ESRLERLEQLFLLIF)”: in data set [1], the “competition with binding of labeled GAL4 to the proteins from positive clones” value was “inhibited”.
On the same count and under the same terms, next, growth hormone: “ineffective competitors”.

B1: TARGET TEMPLATE to … (GAL4 17-31AA): Target oligo template pool, 1st and 3rd codon letters reverse-complementary to Gal4 coding sequence 17-31, 2nd letter undefined (nucleic acid)
DNA: GGATCCATGANTCNTGNCANGGNCTNCTNGANGANAANTCNGTNGANATNGCNGATTCGGCCGC
modifications: listed as DNA, chemistry not fully specified; the letters are possibly those of the target site
Turning to B1, the “positive bacterial clones growing on double selective medium” value in data set [2] is listed as “numerous positive bacterial clones”.

B2: prolactin (protein, UniProt P01236 29-227, looked up)
Prolactin: LPICPGGAARCQVTLRDLFDRAVVLSHYIHNLSSEMFSEFDKRYTHGRGFITKAINSCHTSSLATPEDKEQAQQMNQKDFLSLIVSILRSWNEPLYHLVTEVRGMQEAPEAILSKAVEIEEQTKRLLEGMELIVSQVHPETKENEIYPVWSGLPSLQMADEESRLSAYYNLLHCLRRDSHKIDNYLKLLKCRIIHNNNC
Turning to B2, the “competition with binding of labeled GAL4 to the proteins from positive clones” value in data set [1] is “ineffective competitors”.
